19 compounds from patent publication US20260138978A1, “POSITIVE ALLOSTERIC MODULATORS OF THE MUSCARINIC ACETYLCHOLINE RECEPTOR M1” (Vanderbilt University, priority 2022, published 2026) can be followed below.

For test [1], the target named is T1, human mAChRM1 (Homo sapiens, UniProt P11229).
T1 construct: host or cells: CHO-K1
T1 sequence (P11229 1-460): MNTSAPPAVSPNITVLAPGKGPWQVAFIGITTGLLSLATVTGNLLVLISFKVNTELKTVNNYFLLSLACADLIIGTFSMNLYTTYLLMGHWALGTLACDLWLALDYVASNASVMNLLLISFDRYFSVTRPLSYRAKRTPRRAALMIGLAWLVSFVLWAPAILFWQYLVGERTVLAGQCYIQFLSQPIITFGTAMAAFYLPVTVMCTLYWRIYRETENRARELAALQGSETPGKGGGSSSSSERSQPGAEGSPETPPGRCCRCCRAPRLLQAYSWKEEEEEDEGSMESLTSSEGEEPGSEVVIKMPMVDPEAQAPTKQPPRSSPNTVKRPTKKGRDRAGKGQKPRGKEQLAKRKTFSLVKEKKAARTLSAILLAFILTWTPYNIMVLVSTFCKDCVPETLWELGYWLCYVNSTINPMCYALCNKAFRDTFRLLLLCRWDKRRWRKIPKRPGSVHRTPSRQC
Kind of test: mAChR M1 cell-based functional assay (calcium mobilization), agonist activity upon compound addition, Emax relative to acetylcholine maximum. Particulars: for EC50 / Agonist Activity Human M1 EC50: calcium mobilization upon compound addition; for Emax: relative to the maximum for acetylcholine. A digest of the protocol:
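CHO-K1 cells stably expressing human M1 were loaded with Fluo-4 AM for 50 min at 37 °C. Compound was added 4 s into a 300 s FDSS read at 1 Hz, over 11-point 1:3 dilution curves. Agonism was taken as a concentration-dependent rise in calcium fluorescence ratio, with Emax expressed relative to the acetylcholine maximum from four-parameter logistic fits.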

Test [2] has as its target T1, human mAChRM1. Kind of test: mAChR M1 cell-based functional assay (calcium mobilization), positive allosteric modulator activity: increase in the EC20 acetylcholine response. Particulars: for Emax: PAM mode; for EC50: increase in the EC20 acetylcholine response, read-out: PAM Activity Human M1 EC50; call rule not given here. The gist of the method: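 CHO-K1 cells stably expressing human M1, loaded with Fluo-4 AM; calcium flux recorded on FDSS at 1 Hz over 300 s following compound addition. PAM activity is the concentration-dependent increase of an EC20 acetylcholine response; EC50 and Emax from four-parameter logistic fits of 11-point, 1:3 concentration series.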

Where only a bound is given, the exact number is not on record here.

Broadly, the EC50 is the concentration at which the effect is half-maximal. As usually defined, the Emax is the size of the effect at its maximum, as opposed to the concentration needed.

`Cn1cc2c(-c3cc(F)c(CN4Cc5ncccc5C4=O)c(F)c3)ccc(C3(O)CCOC3)c2n1` (stereo not drawn) [Compound 90, 6-(2,6-difluoro-4-(7-(3-hydroxytetrahydrofuran-3-yl)-2-methyl-2H-indazol-4-yl)benzyl)-6,7-dihydro-5H-pyrrolo[3,4-b]pyridin-5-one]: on human mAChRM1 [1], the EC50 came to 2460 nM and the Emax was determined as 20%. Moreover, at human mAChRM1 [2], the Emax came to 83% and the EC50 turned out to be 116 nM.

Take `Cn1cc2c(-c3cc(F)c(CN4Cc5ncccc5C4=O)c(F)c3)ccc(C3(O)CCCC3)c2n1` [Compound 91, 6-(2,6-difluoro-4-(7-(1-hydroxycyclopentyl)-2-methyl-2H-indazol-4-yl)benzyl)-6,7-dihydro-5H-pyrrolo[3,4-b]pyridin-5-one]: on human mAChRM1 [1], the EC50 came out at 7030 nM and the maximal effect (Emax) is 15%. Further, on human mAChRM1 [2], the maximum response (Emax) was determined as 72% and the EC50 is 254 nM.

With `Cn1cc2c(-c3cc(F)c(CN4Cc5ncccc5C4=O)c(F)c3)ccc(C3(O)CCOCC3)c2n1` [Compound 92, 6-(2,6-difluoro-4-(7-(4-hydroxytetrahydro-2H-pyran-4-yl)-2-methyl-2H-indazol-4-yl)benzyl)-6,7-dihydro-5H-pyrrolo[3,4-b]pyridin-5-one], on human mAChRM1 [1], the half-maximal effective concentration (EC50) was 1400 nM and the Emax stood at 22%. Besides, on human mAChRM1 [2], the maximum response (Emax) turned out to be 81% and the EC50 is 76 nM.

In the case of `[2H]C([2H])([2H])C(O)(c1ccc(-c2cc(F)c(CN3Cc4ncccc4C3=O)c(F)c2)c2cn(C)nc12)C([2H])([2H])[2H]` [Compound 93, 6-(2,6-difluoro-4-(7-(2-hydroxypropan-2-yl-1,1,1,3,3,3-d6)-2-methyl-2H-indazol-4-yl)benzyl)-6,7-dihydro-5H-pyrrolo[3,4-b]pyridin-5-one], at human mAChRM1 [1], the EC50 came out at 1870 nM and the Emax turned out to be 22%. In addition, on human mAChRM1 [2], the Emax was 83% and the EC50 came out at 76 nM.

Regarding `C[C@H](c1c(F)cc(-c2ccc(C(C)(C)O)c3nn(C)cc23)cc1F)N1Cc2ncccc2C1=O` [Compound 94, (R)-6-(1-(2,6-difluoro-4-(7-(2-hydroxypropan-2-yl)-2-methyl-2H-indazol-4-yl)phenyl)ethyl)-6,7-dihydro-5H-pyrrolo[3,4-b]pyridin-5-one], the “Agonist Activity Human M1 EC50” value on human mAChRM1 [1] is “inactive”. Besides, on human mAChRM1 [2], the Emax worked out at 60% and the EC50 came to 1270 nM.

With `[2H]C([2H])([2H])C(C)(O)c1ccc(-c2cc(F)c(CN3Cc4ncccc4C3=O)c(F)c2)c2cn(C)nc12` (stereo not drawn) [Compound 95, 6-(2,6-difluoro-4-(7-(2-hydroxypropan-2-yl-1,1,1-d3)-2-methyl-2H-indazol-4-yl)benzyl)-6,7-dihydro-5H-pyrrolo[3,4-b]pyridin-5-one], at human mAChRM1 [1], the EC50 is 1860 nM and the Emax is 27%. Also, at human mAChRM1 [2], the Emax came to 86% and the EC50 worked out at 96 nM.

Regarding `Cn1cc2c(-c3cc(F)c(CN4Cc5ncccc5C4=O)c(F)c3)ccc(C3(O)CCC3)c2n1` [Compound 96, 6-(2,6-difluoro-4-(7-(1-hydroxycyclobutyl)-2-methyl-2H-indazol-4-yl)benzyl)-6,7-dihydro-5H-pyrrolo[3,4-b]pyridin-5-one], the “Agonist Activity Human M1 EC50” value on human mAChRM1 [1] is “inactive”. Further, on human mAChRM1 [2], the Emax worked out at 84% and the EC50 is 630 nM.

For `Cn1cc2c(-c3cc(F)c(CN4Cc5ncccc5C4=O)c(F)c3)ccc(C(C)(O)CS(C)(=O)=O)c2n1` (stereo not drawn) [Compound 97, 6-(2,6-difluoro-4-(7-(2-hydroxy-1-(methylsulfonyl)propan-2-yl)-2-methyl-2H-indazol-4-yl)benzyl)-6,7-dihydro-5H-pyrrolo[3,4-b]pyridin-5-one], the “Agonist Activity Human M1 EC50” value on human mAChRM1 [1] was “inactive”. In addition, on human mAChRM1 [2], the maximal effect (Emax) came to 87% and the 50% effective concentration (EC50) is 872 nM.

Consider `C[C@@H](c1c(F)cc(-c2ccc(C(C)(C)O)c3nn(C)cc23)cc1F)N1Cc2ncccc2C1=O` [Compound 98, (S)-6-(1-(2,6-difluoro-4-(7-(2-hydroxypropan-2-yl)-2-methyl-2H-indazol-4-yl)phenyl)ethyl)-6,7-dihydro-5H-pyrrolo[3,4-b]pyridin-5-one], for which, on human mAChRM1 [1], the “Agonist Activity Human M1 EC50” value is “inactive”. On human mAChRM1 [2], the Emax was determined as 80% and the concentration giving a half-maximal response (EC50) was determined as 1120 nM.

With `CCn1cc2c(-c3cc(F)c(CN4Cc5ncccc5C4=O)c(F)c3)ccc(C(C)(C)O)c2n1` [Compound 99, 6-(4-(2-ethyl-7-(2-hydroxypropan-2-yl)-2H-indazol-4-yl)-2,6-difluorobenzyl)-6,7-dihydro-5H-pyrrolo[3,4-b]pyridin-5-one], the EC50 turned out to be 4110 nM at human mAChRM1 [1] and 176 nM at human mAChRM1 [2]. Moreover, the Emax on human mAChRM1 [1] came out at 13%; on human mAChRM1 [2], 85%.

In the case of `Cn1cc2c(-c3cc(F)c(CN4Cc5ncccc5C4=O)c(F)c3)ccc(C(C)(O)C(F)F)c2n1` (stereo not drawn) [Compound 100, 6-(4-(7-(1,1-difluoro-2-hydroxypropan-2-yl)-2-methyl-2H-indazol-4-yl)-2,6-difluorobenzyl)-6,7-dihydro-5H-pyrrolo[3,4-b]pyridin-5-one], on human mAChRM1 [1], the “Agonist Activity Human M1 EC50” value is “inactive”. Besides, on human mAChRM1 [2], the Emax was found to be 88% and the EC50 came to 211 nM.

`Cn1cc2c(-c3cc(F)c(CN4Cc5ncccc5C4=O)c(F)c3)ccc(C3(O)CCC(C#N)CC3)c2n1` (stereo not drawn) [Compound 101, 4-(4-(3,5-difluoro-4-((5-oxo-5,7-dihydro-6H-pyrrolo[3,4-b]pyridin-6-yl)methyl)phenyl)-2-methyl-2H-indazol-7-yl)-4-hydroxycyclohexane-1-carbonitrile]: the “Agonist Activity Human M1 EC50” value on human mAChRM1 [1] was “inactive”. Besides, at human mAChRM1 [2], the Emax turned out to be 86% and the EC50 was 222 nM.

On to `CC[C@@](C)(O)c1ccc(-c2cc(F)c(CN3Cc4ncccc4C3=O)c(F)c2)c2cn(C)nc12` [Compound 102, (R)-6-(2,6-difluoro-4-(7-(2-hydroxybutan-2-yl)-2-methyl-2H-indazol-4-yl)benzyl)-6,7-dihydro-5H-pyrrolo[3,4-b]pyridin-5-one], for which the “Agonist Activity Human M1 EC50” value at human mAChRM1 [1] was “inactive”. In addition, at human mAChRM1 [2], the maximal response (Emax) was 85% and the EC50 was 359 nM.

For the compound `CC[C@](C)(O)c1ccc(-c2cc(F)c(CN3Cc4ncccc4C3=O)c(F)c2)c2cn(C)nc12` [Compound 103, (S)-6-(2,6-difluoro-4-(7-(2-hydroxybutan-2-yl)-2-methyl-2H-indazol-4-yl)benzyl)-6,7-dihydro-5H-pyrrolo[3,4-b]pyridin-5-one], at human mAChRM1 [1], the EC50 came to 4230 nM and the Emax was found to be 11%. For the same compound, at human mAChRM1 [2], the Emax came to 87% and the EC50 came to 254 nM.

Turning to `CC(C)n1cc2c(-c3cc(F)c(CN4Cc5ncccc5C4=O)c(F)c3)ccc(C(C)(C)O)c2n1` [Compound 104, 6-(2,6-difluoro-4-(7-(2-hydroxypropan-2-yl)-2-isopropyl-2H-indazol-4-yl)benzyl)-6,7-dihydro-5H-pyrrolo[3,4-b]pyridin-5-one], on human mAChRM1 [1], the “Agonist Activity Human M1 EC50” value is “inactive”. For the same compound, at human mAChRM1 [2], the Emax is 86% and the EC50 was 284 nM.

`Cn1cc2c(-c3cc(F)c(CN4Cc5ncccc5C4=O)c(F)c3)ccc(C3(O)CC(F)(F)C3)c2n1` [Compound 105, 6-(4-(7-(3,3-difluoro-1-hydroxycyclobutyl)-2-methyl-2H-indazol-4-yl)-2,6-difluorobenzyl)-6,7-dihydro-5H-pyrrolo[3,4-b]pyridin-5-one]: the figures for the EC50 on human mAChRM1 [1] and on human mAChRM1 [2] were more than 10000 nM and 780 nM, respectively. The Emax at human mAChRM1 [1] was found to be 15%; at human mAChRM1 [2] it was 72%.

Take `Cn1cc2c(-c3cc(F)c(CN4Cc5c(F)cccc5C4=O)c(F)c3)ccc(C(C)(C)O)c2n1` [Compound 106, 2-(2,6-difluoro-4-(7-(2-hydroxypropan-2-yl)-2-methyl-2H-indazol-4-yl)benzyl)-4-fluoroisoindolin-1-one]: the “Agonist Activity Human M1 EC50” value at human mAChRM1 [1] is “inactive”. Further, at human mAChRM1 [2], the Emax came to 59% and the EC50 stood at 4680 nM.

In the case of `CC(C)(O)c1cc2c(-c3cc(F)c(CN4Cc5ncccc5C4=O)c(F)c3)cccn2n1` [Compound 107, 6-(2,6-difluoro-4-(2-(2-hydroxypropan-2-yl)pyrazolo[1,5-a]pyridin-4-yl)benzyl)-6,7-dihydro-5H-pyrrolo[3,4-b]pyridin-5-one], on human mAChRM1 [1], the EC50 was not below 10000 nM and the Emax was 12%. Moreover, on human mAChRM1 [2], the Emax is 77% and the EC50 turned out to be 2790 nM.

For the compound `CC(C)(O)c1cc2cc(-c3cc(F)c(CN4Cc5ncccc5C4=O)c(F)c3)ccn2n1` [Compound 108, 6-(2,6-difluoro-4-(2-(2-hydroxypropan-2-yl)pyrazolo[1,5-a]pyridin-5-yl)benzyl)-6,7-dihydro-5H-pyrrolo[3,4-b]pyridin-5-one], the “Agonist Activity Human M1 EC50” value at human mAChRM1 [1] is “inactive”. Moreover, at human mAChRM1 [2], the maximal response (Emax) stood at 70% and the 50% effective concentration (EC50) was determined as 1800 nM.
